Reference: US11672265B2, “Egg replacement containing euglena-derived components” (NOBLEGEN, INC., priority 2019, dated 2023)
Read-outs that look alike come from different tables or passages of the source.

Legend:
[1] = system: microbial growth in non-heat treated biomass; type: cell-based, yeast, mold, bacteria; conditions: refrigerator (4° C.) 5 days, CP 1000 ppm, SB + PS 1000 ppm each, BV 0.25% (w/w)
Procedure: A biomass stored in the refrigerator at harvested pH (pH 2.75) for 2 days after harvest was chosen for microbial analysis. Four different pH conditions were used for non-heat treated biomass storage, pH 3, 4.5, 5 and 7. Three different antimicrobials (see Table 19 for the names and usage levels) were added to biomass at each pH selected. Control without any antimicrobial agents were also stored at different selected pHs. All the biomass samples were stored in a 4° C. refrigerator for 5 days and a TSA plate assay was done to see the presence of any microbes at the 5 day mark.
Samples without any microbial growth were considered for further storage study. After 16 days of storage, a TSA plating was done on all the heat treated biomass and non-heated biomass with SB+PS at pH 3, 4.5 and 5.

[2] = system: microbes in fresh biomass; assay: Treatment of fresh biomass with nisin, TSA plates; type: cell-based, bacteria and yeast
Procedure: Method: Obtained fresh biomass and was washed 1 time with 2.5 times water. The biomass was diluted to 10% (solid content-10.36 w/w %, initial pH was pH 3.35 and the pH was adjusted to 7.2 using 2.5 M NaOH. […] Similarly, about the same amount of biomass without Nisin was also left at both conditions.

Row | Molecule | Microbial growth observed in non-heat treated biomass with antimicrobials ([1]; pH 3) | Microbial growth observed in non-heat treated biomass with antimicrobials ([1]; pH 4.5) | Presence of microbes in biomass treated with nisin ([2]; 70 ppm nisin, biomass pH 7.2, room temperature or 4° C., up to 24 hours) | Prevention of growth of microorganisms in fresh biomass or wet protein concentrate ([2]; 75 ppm of Nisin (conclusion))
1 | CCC(=O)[O-].CCC(=O)[O-].[Ca+2] [CP, Calcium propionate] | yeast | yeast | – | –
2 | nisin | – | – | Presence of microbes were found at all storage conditions irrespective of the presence of nisin or storage time | will not be able to prevent the growth of microorganisms
